{"source": "ChEMBL document CHEMBL1641553", "about": "“Antimalarials based on the dioxane scaffold of plakortin. A concise synthesis and SAR studies” (Bioorg Med Chem, 2011)", "key": {"Plasmodium falciparum [1]": {"test_system": "Plasmodium falciparum", "assay": "Antimalarial activity against chloroquine-sensitive Plasmodium falciparum D10 infected in human A-positive red blood cells after 72 hrs by lactate dehydrogenase assay", "assay_type": "functional, organism-based", "conditions": "D10, 72 h"}, "Plasmodium falciparum [2]": {"test_system": "Plasmodium falciparum", "assay": "Antimalarial activity against chloroquine-resistant Plasmodium falciparum W2 infected in human A-positive red blood cells after 72 hrs by lactate dehydrogenase assay", "assay_type": "functional, organism-based", "conditions": "W2, 72 h"}}}
{"smiles": "CCCCC[C@@H]1OO[C@H](CC(=O)OCC)[C@@H](O)[C@H]1O", "values": [{"measurement": "IC50", "setting": "Plasmodium falciparum [1]", "value": "> 30", "unit": "µM"}, {"measurement": "IC50", "setting": "Plasmodium falciparum [2]", "value": "> 30", "unit": "µM"}]}
{"smiles": "CCCCC[C@H](O)/C=C\\[C@@H](CC(=O)OCC)OCCCC", "values": [{"measurement": "IC50", "setting": "Plasmodium falciparum [1]", "value": "> 30", "unit": "µM"}, {"measurement": "IC50", "setting": "Plasmodium falciparum [2]", "value": "> 30", "unit": "µM"}]}
{"smiles": "CCCCC[C@@H]1OO[C@H](CC(=O)OCC)[C@H]2O[C@H]21", "values": [{"measurement": "IC50", "setting": "Plasmodium falciparum [1]", "value": 22.1, "unit": "µM"}, {"measurement": "IC50", "setting": "Plasmodium falciparum [2]", "value": 10.3, "unit": "µM"}]}
{"smiles": "CCCCC[C@@H]1OO[C@H](CC(=O)OCC)[C@@H](Br)[C@@H]1Br", "values": [{"measurement": "IC50", "setting": "Plasmodium falciparum [1]", "value": 8.15, "unit": "µM"}, {"measurement": "IC50", "setting": "Plasmodium falciparum [2]", "value": 5.11, "unit": "µM"}]}
{"smiles": "CCCCCC/C=C/C=C/C(=O)OCC", "values": [{"measurement": "IC50", "setting": "Plasmodium falciparum [1]", "value": 0.9, "unit": "µM"}, {"measurement": "IC50", "setting": "Plasmodium falciparum [2]", "value": 0.43, "unit": "µM"}]}
{"smiles": "CCCCC[C@H]1C=C[C@@H](CC(=O)OCC)OO1", "values": [{"measurement": "IC50", "setting": "Plasmodium falciparum [1]", "value": 1.2, "unit": "µM"}, {"measurement": "IC50", "setting": "Plasmodium falciparum [2]", "value": 1.49, "unit": "µM"}]}
{"smiles": "CCCCC[C@H]1C=C[C@@H](CCO)OO1", "values": [{"measurement": "IC50", "setting": "Plasmodium falciparum [1]", "value": "> 30", "unit": "µM"}, {"measurement": "IC50", "setting": "Plasmodium falciparum [2]", "value": "> 30", "unit": "µM"}]}
{"smiles": "CCCCC[C@H]1C=C[C@@H](CCOC(C)=O)OO1", "values": [{"measurement": "IC50", "setting": "Plasmodium falciparum [1]", "value": 21.9, "unit": "µM"}, {"measurement": "IC50", "setting": "Plasmodium falciparum [2]", "value": 12.5, "unit": "µM"}]}
{"smiles": "CCCCC[C@H]1C=C[C@@H](CC(=O)O)OO1", "values": [{"measurement": "IC50", "setting": "Plasmodium falciparum [1]", "value": 3.33, "unit": "µM"}, {"measurement": "IC50", "setting": "Plasmodium falciparum [2]", "value": 3.42, "unit": "µM"}]}
{"smiles": "CCCCC[C@@H]1OO[C@H](CC(=O)OCC)[C@@H]2O[C@@H]21", "values": [{"measurement": "IC50", "setting": "Plasmodium falciparum [1]", "value": "> 30", "unit": "µM"}, {"measurement": "IC50", "setting": "Plasmodium falciparum [2]", "value": "> 30", "unit": "µM"}]}
{"smiles": "CCCCC[C@@H]1OO[C@H](CC(=O)OCC)[C@H](Br)[C@H]1Br", "values": [{"measurement": "IC50", "setting": "Plasmodium falciparum [1]", "value": 9.12, "unit": "µM"}, {"measurement": "IC50", "setting": "Plasmodium falciparum [2]", "value": 5.65, "unit": "µM"}]}
{"smiles": "CCCCCC/C=C/C=O", "note": "[2-NONENAL]", "values": [{"measurement": "IC50", "setting": "Plasmodium falciparum [1]", "value": 0.87, "unit": "µM"}, {"measurement": "IC50", "setting": "Plasmodium falciparum [2]", "value": 0.39, "unit": "µM"}]}
